Assay [1] deals with T1, Nonstructural protein 3 (Zika virus, UniProt A0A024AXB9). Kind of assay: Functional biochemical assay to identify treatments for viral infectious disease that targets Zika NS2B-NS3 protease. Utilizing a direct enzyme activity measurement method, reading the fluorescence intensity is used to characterize the relative potency of inhibitors as IC50. Synthetic construct has been made based on Zika virus (strain PRVABC59) by Centre for Medicines Discovery, University of Oxford, and the assay has been performed by Stanford University.The protocol is publicly available: dx.doi.org/10.17504/protocols.io.x54v9r83zv3e/v1.

The target of assay [2] is T1, Nonstructural protein 3. The assay is described as follows: Functional biochemical assay to identify treatments for viral infectious disease that targets Zika NS2B-NS3 protease. Utilizing a direct enzyme activity measurement method, reading the fluorescence intensity is used to characterize the relative potency of inhibitors as IC50. Details: species or system PRVABC59.

For assay [3], the target named is T1, Nonstructural protein 3. The assay is described as follows: Functional biochemical assay to identify treatments for viral infectious disease that targets Zika NS2B-NS3 protease. Utilizing a direct enzyme activity measurement method, reading the fluorescence intensity is used to characterize the relative potency of inhibitors as IC50. Synthetic construct has been made based on Zika virus (strain PRVABC59) by Centre for Medicines Discovery, University of Oxford, and the assay has been performed by Enamine biological services, Bienta Ltd.The protocol is publicly available: dx.doi.org/10.17504/protocols.io.36wgqn273gk5/v1.

By IC50 is commonly meant the concentration that inhibits the measured activity by half. A lower IC50 goes with greater potency.

Several values for one entry are separate records, joined by “and”; a condition that tells them apart may be missing. Equal values may be shown once.

T1 sequence (A0A024AXB9 whole entry): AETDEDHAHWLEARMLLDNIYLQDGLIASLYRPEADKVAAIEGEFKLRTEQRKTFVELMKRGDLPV

`O=Cc1ccc(N2CCCCCC2)cc1` showed an IC50 against Nonstructural protein 3 [1] of 65.8 µM. On the same count and under the same terms, under `O=Cc1nc(-c2ccccc2Cl)n2ccccc12` stands 46.3 µM; under `Cc1c(C=O)c2ccccn2c1C(=O)c1ccncc1`, 36.4 µM; under `O=Cc1ccc(N2CCCCC2)cc1`, 49.8 µM.

With `CN(C)c1ccc(C=C(C#N)C(N)=O)cc1`, the IC50 at Nonstructural protein 3 [1] came to 31 µM. Compared with the last compound, the IC50 is about 1.6-fold lower. In the case of `Cc1nc(C=O)c2ccccn12`, it took 64.5 µM to reach half-maximal inhibition against Nonstructural protein 3 [1] (IC50). Same read-out and setting: under `O=Cc1ccc(N2CCC(C(=O)O)CC2)cc1` stands 53.7 µM; under `Cc1cc(NS(=O)(=O)c2ccc(S(=O)(=O)F)cc2)c[nH]c1=O`, 13.1 µM; under `O=Cc1ccc(N2CCC(C(=O)O)CC2)o1`, 30.4 µM. Consider `O=C(NCC(F)F)[C@H](Nc1ncc2c(n1)CNC2)c1cc(Cl)cc(C2CC2)c1`, for which the IC50 against Nonstructural protein 3 [2] worked out at 4.19 µM; against Nonstructural protein 3 [3] it was 19.6 µM.

On to `Cn1nc(CNc2cc(-c3cccnc3)ccn2)cc1C1CC1`, for which the IC50 against Nonstructural protein 3 [2] and against Nonstructural protein 3 [3] was > 25 µM in each case. `Cc1c(C(=O)Nc2ccc3c(c2)C[C@H](C(N)=O)O3)cc(C2CC2)n1C`: the IC50 at Nonstructural protein 3 [2] and against Nonstructural protein 3 [3] was > 25 µM in each case. As for `Cc1c(C(=O)Nc2ccc3c(c2)CCC(=O)N3CC2CCC2)cc(C2CC2)n1C`, the IC50 at Nonstructural protein 3 [2] and at Nonstructural protein 3 [3] was > 25 µM in each case.

As for `Clc1cc(CNc2ncc3c(n2)CNC3)c2cn[nH]c2c1`, the 50% inhibitory concentration (IC50) against Nonstructural protein 3 [2] and on Nonstructural protein 3 [3] was > 25 µM each time. `Cc1c(C(=O)Nc2cccc(-c3nc(C4CC4)no3)c2)cc(C2CC2)n1C`: the IC50 on Nonstructural protein 3 [2] and on Nonstructural protein 3 [3] was > 25 µM in each case. Consider `CC(=O)N1CC[C@]2(C1)C(=O)Nc1cccc(C(=O)Nc3ccc4c(c3)CNC4)c12`, for which the IC50 at Nonstructural protein 3 [2] was found to be 0.126 µM; against Nonstructural protein 3 [3], 0.714 µM. As for `CC(C)NC(=O)C[C@H]1NCc2cc(NC(=O)c3cc(Cl)cc4[nH]ncc34)ccc21`, the half-maximal inhibitory concentration (IC50) at Nonstructural protein 3 [2] was 0.185 µM; against Nonstructural protein 3 [3], 1.06 µM and 2.3 µM. In turn, `CC[C@H]1CO[C@H](C)CN1c1ccc(C=O)cn1` came in with a half-maximal inhibitory concentration (IC50) on Nonstructural protein 3 [1] of 43 µM. In the case of `O=C(NCC(F)F)[C@H](Nc1ccc2c(c1)CNC2)c1cc(Cl)cc2cccnc12`, the IC50 is 0.016 µM against Nonstructural protein 3 [2]; 0.053 µM and 0.076 µM on Nonstructural protein 3 [3].

On to `Nc1ccc2ccc(B(O)O)cc2c1`, for which the half-maximal inhibitory concentration (IC50) on Nonstructural protein 3 [2] was > 99.5 µM; on Nonstructural protein 3 [1], 2.5 µM. `Cc1c(C(=O)Nc2cccc(-c3ccoc3)c2)cc(C2CC2)n1C`: the IC50 at Nonstructural protein 3 [2] and at Nonstructural protein 3 [3] was > 25 µM each time. For the compound `CN(C)C(=O)C[C@H]1NCc2cc(NC(=O)c3cc(Cl)cc4[nH]ncc34)ccc21`, the IC50 on Nonstructural protein 3 [2] is 0.481 µM; against Nonstructural protein 3 [3] it was 2.12 µM and 2.36 µM. On to `CS(=O)(=O)NC(=O)C[C@H]1NCc2cc(NC(=O)c3cc(Cl)cc4[nH]ncc34)ccc21`, for which the IC50 was 0.65 µM at Nonstructural protein 3 [2]; 2.21 µM and 1.7 µM against Nonstructural protein 3 [3]. Take `CC(C)(C)NC(=O)C[C@H]1NCc2cc(NC(=O)c3cc(Cl)cc4[nH]ncc34)ccc21`: the half-inhibitory concentration (IC50) was 0.167 µM against Nonstructural protein 3 [2]; 1.07 µM and 0.985 µM against Nonstructural protein 3 [3]. `CNC(=O)C[C@H]1NCc2cc(NC(=O)c3cc(Cl)cc4[nH]ncc34)ccc21`: the IC50 at Nonstructural protein 3 [2] is 0.187 µM; on Nonstructural protein 3 [3], 0.999 µM and 1.08 µM. Take `Cc1c(C(=O)Nc2cccc(Cn3cccn3)c2)cc(C2CC2)n1C`: the concentration for half-maximal inhibition (IC50) against Nonstructural protein 3 [2] and at Nonstructural protein 3 [3] was > 25 µM each time. Consider `Cc1c(C(=O)Nc2cc(C3CCOCC3)ccn2)cc(C2CC2)n1C`, for which the IC50 against Nonstructural protein 3 [2] and at Nonstructural protein 3 [3] was > 25 µM throughout. As for `N#Cc1cccc(-c2nc3c(C(=O)Nc4ccc(F)cc4)cc(Cl)cc3[nH]2)c1`, the IC50 against Nonstructural protein 3 [2] and on Nonstructural protein 3 [3] was > 25 µM each time.

Consider `COC(=O)[C@H]1NCc2cc(NC(=O)c3cc(F)cc4[nH]ncc34)ccc21`, for which the IC50 against Nonstructural protein 3 [2] stood at 4.84 µM; on Nonstructural protein 3 [3], 21.5 µM. `COCCN(C)C(=O)[C@H](Nc1ccc2c(c1)CNC2)c1cc(Cl)cc(C2CC2)c1`: the IC50 worked out at 1.21 µM against Nonstructural protein 3 [2] and 4.62 µM on Nonstructural protein 3 [3]. In turn, `Cc1c(C=O)c2ccccn2c1C#N` showed an IC50 at Nonstructural protein 3 [1] of 24.9 µM. In the case of `O=C(NCC(F)F)[C@H](Nc1ccc2c(n1)CNC2)c1cc(Cl)cc(C2CC2)c1`, the IC50 at Nonstructural protein 3 [2] was found to be 1.33 µM; against Nonstructural protein 3 [3], 5.5 µM. `Cn1nc(CNc2cc([C@H]3CCOC3)ccn2)cc1C1CC1`: the 50% inhibitory concentration (IC50) at Nonstructural protein 3 [2] and against Nonstructural protein 3 [3] was > 25 µM each time. Consider `O=C([C@H](Nc1ccc2c(c1)CNC2)c1cc(Cl)cc(C2CC2)c1)N1CCOCC1`, for which the IC50 against Nonstructural protein 3 [2] was 0.401 µM; against Nonstructural protein 3 [3], 2.1 µM.

(Values after ChEMBL document CHEMBL5604062, “ASAP - ZIKV NS2B-NS3 protease fluorescence dose response” (2024).)
